# Key:
# Format in all cases: cell-based
# [1] = tested on: Chlamydia pneumoniae ATCCVR-1360; assay: MIC, chlamydial inclusion assay in infected HeLa 229 cells; conditions: ATCCVR1360; Chlamydia pneumoniae ATCCVR-1360 in HeLa 229 cells; 72 hours, lowest concentration with no inclusion
# Description: C. pneumoniae was tested using minimum essential medium supplemented with 10% heat-inactivated fetal bovine serum, 2 mM L-glutamine, […] cycloheximide and non essential amino acid. HeLa 229 cells were inoculated with 10^4 inclusion-forming units of C. pneumoniae strain per mL. Infected cells were incubated with test compounds in complete medium at 35C in an atmosphere of 5% CO2 for 72 hours. […] The MIC was defined as the lowest concentration at which no inclusion was observed.
# [2] = tested on: Staphylococcus aureus CR (chloramphenicol resistant); assay: MIC, agar dilution method on Mueller-Hinton agar; conditions: 35C, 24 hours
# Description: (§1) The following in vitro results were obtained based on an agar dilution method except for C. pneumoniae. The activity is presented as the minimum inhibitory concentration (MIC) S. aureus and M. catarrhalis were tested on Mueller-Hinton agar, using an approximate inoculum of 1×10^4 cfu/spot an incubation temperature of 35C for 24 hours. The MIC was defined as the lowest concentration at which no visible bacterial growth was observed.
# [3] = tested on: Staphylococcus aureus Smith; assay: MIC, agar dilution method on Mueller-Hinton agar; conditions: 35C, 24 hours
# Description: as §1
# [4] = tested on: Moraxella catarrhalis ATCC25238; assay: MIC, agar dilution method on Mueller-Hinton agar; conditions: 35C, 24 hours
# Description: as §1
# [5] = tested on: Staphylococcus aureus MR (methicillin resistant); assay: MIC, agar dilution method on Mueller-Hinton agar; conditions: 35C, 24 hours
# Description: as §1
# [6] = tested on: Streptococcus pyogenes IID692; assay: MIC, agar dilution method on Mueller-Hinton agar with 5% defibrinated horse blood; conditions: 5% horse blood, 5% CO2, 35C, 24 hours
# Description: as §1
# (§2) Streptococci and enterococci were tested on Mueller-Hinton agar supplemented with 5% defibrinated horse blood, using an approximate inoculum of 1×10^4 cfu/spot an incubation temperature of 35C in an atmosphere of 5% CO2 for 24 hours. The MIC was defined as the lowest concentration at which no visible bacterial growth was observed.
# [7] = tested on: Streptococcus pneumoniae PRQR (penicillin resistant, quinolone resistant); assay: as above; conditions: 5% horse blood, 5% CO2, 35C, 24 hours
# Description: as §1, §2
# [8] = tested on: Streptococcus pneumoniae IID553; assay: as above; conditions: 5% horse blood, 5% CO2, 35C, 24 hours
# Description: as §1, §2
# [9] = tested on: Enterococcus faecium VRQR (vancomycin resistant, quinolone resistant); assay: as above; conditions: 5% horse blood, 5% CO2, 35C, 24 hours
# Description: as §1, §2
SMILES,MIC [1],MIC [2],MIC [3],MIC [4],MIC [5],MIC [6],MIC [7],MIC [8],MIC [9]
"COC(=S)NC[C@H]1CN(c2ccc(C3(C#N)CC3)c(F)c2)C(=O)O1 [example 32, O-Methyl N-[5(S)-3-[4-(1-Cyanocyclopropan-1-yl)-3-fluorophenyl]-2-oxooxazolidin-5-ylmethyl]thiocarbonate]",4 µg/mL,2 µg/mL,0.125 µg/mL,0.5 µg/mL,0.125 µg/mL,0.125 µg/mL,0.125 µg/mL,0.25 µg/mL,0.25 µg/mL
"N#CC1(c2ccc(N3C[C@H](CNc4ccon4)OC3=O)cc2F)CC1 [example 18, 5(S)-3-[4-(1-Cyanocyclopropan-1-yl)-3-fluorophenyl]-5-[N-(1,2-isoxadiazolyl-3-yl)amino]methyloxazolidin-2-one]",,16 µg/mL,0.5 µg/mL,8 µg/mL,0.5 µg/mL,1 µg/mL,1 µg/mL,1 µg/mL,1 µg/mL
"CC(=S)NC[C@H]1CN(c2ccc(C3(C#N)CC3)c(F)c2)C(=O)O1 [example 8, N-[5(S)-3-[4-(1-Cyanocyclopropan-1-yl)-3-fluorophenyl]-2-oxooxazolidin-5-ylmethyl]thioacetamide]",0.25 µg/mL,0.5 µg/mL,0.125 µg/mL,0.5 µg/mL,0.125 µg/mL,0.125 µg/mL,0.25 µg/mL,0.25 µg/mL,0.25 µg/mL
"CC(=O)NC[C@H]1CN(c2ccc(C3(C#N)CC3)c(F)c2)C(=O)O1 [example 7, N-[5(S)-3-[4-(1-Cyanocyclopropan-1-yl)-3-fluorophenyl]-2-oxooxazolidin-5-ylmethyl]acetamide]",0.5 µg/mL,4 µg/mL,0.5 µg/mL,4 µg/mL,0.5 µg/mL,0.5 µg/mL,1 µg/mL,1 µg/mL,0.5 µg/mL
"CC(=O)NC[C@H]1CN(c2ccc(N3CCOCC3)c(F)c2)C(=O)O1 [Linezolid, reference compound]",8 µg/mL,16 µg/mL,1 µg/mL,4 µg/mL,1 µg/mL,1 µg/mL,1 µg/mL,2 µg/mL,2 µg/mL

# Source: patent publication US6686363B2, “Cyclopropyl containing oxazolidinone antibiotics and derivatives thereof” (Kyorin Pharmaceutical Co., Ltd., priority 2001, dated 2004)
